Experimental data reported in patent US20060009520A1, “Retinoid-based methods for altering macrophage cholesterol” (priority 2004, published 2006).

Assays:
[1] = test system: acute promyelocytic leukemia; settings: patients with acute promyelocytic leukemia; cited from earlier work
[2] = test system: ABCA1, ABCG1, SREBP-1c, apoE, LXRα, Cyp26 mRNA; experiment: Quantitative real-time PCR of LXR target genes and Cyp26 in mouse peritoneal macrophages; assay type: cell-based; settings: 24 h
Experimental: Total RNA was isolated from mouse peritoneal macrophages or ˜50 mg of mouse liver tissue by using the RNeasy Mini kit (Qiagen, Valencia, Calif.) or RNA-Bee reagent (Tel-Test, Inc., Friendswood, Tex.), respectively, according to the manufacturer's protocol. Real-time quantitative PCR assays were performed by using the Mx4000 Quantitative PCR System (Stratagene, La Jolla, Calif.). Briefly, 5 μg of total RNA was treated with RNase-free DNase I (Ambion, Austin, Tex.), and first-strand cDNA was synthesized with oligo(dT)12-18 by using a Superscript II RNase H^− reverse transcriptase reagent kit (Invitrogen) according to the manufacturer's protocol. For quantification of mouse ABCA1, ABCG1, SREBP-1c, LXRα, ApoE, and fatty acid synthase (FAS) mRNA levels, each amplification mixture contained 62.5 ng of cDNA, appropriate concentrations of forward and reverse primers and of dual-labeled fluorogenic probe (Biosearch Technologies, Novato, Calif.), and 12.5 μl of TaqMan Universal PCR master mix (Applied Biosystems, Foster City, Calif.). PCR thermocycling parameters were 50° C. for 2 min, 95° C. for 10 min, and 45 cycles of 95° C. for 15 s and 60° C. for 1 min. All samples were analyzed for β-actin expression in the same run. Quantitative expression values were extrapolated from standard curves for the gene of interest with 10-fold dilutions of cDNA (in triplicate). Each sample was normalized to β-actin, triplicates were averaged, and relative mRNA levels were determined. The following mouse primers and probes were used: mouse ABCA1 (mABCA1) forward (F) (5′-[…]-3′), mABCA1 reverse (R) (5′-[…]-3′), and mABCA1 TaqMan probe (5′-FAM-[…]-BHQ-3′); mABCG1 F (5′-[…]-3′), mABCG1 R (5′-[…]-3′), and mABCG1 TaqMan probe (5′-FAM-[…]-BHQ-3′); mSREBP-1c F (5′-[…]-3′), mSREBP-1c R (5′-[…]-3′), and mSREBP-1c TaqMan probe (5′-FAM-[…]-BHQ-3′); mApoE F (5′-[…]-3′), mApoE R (5′-[…]-3′), and mApoE TaqMan probe (5′-FAM-[…]-BHQ-3′); mLXRα F (5′-[…]-3′), mLXRα R (5′-[…]-3′), and mLXRα TaqMan probe (5′-FAM-[…]-BHQ-3′); mFAS F (5′-[…]-3′), mFAS R (5′-[…]-3′), and mFAS TaqMan probe (5′-FAM-[…]-BHQ-3′); and mβ-actin F (5′-[…]-3′), mβ-actin R (5′-[…]-3′), and mβ-actin TaqMan probe (5′-JOE-[…]-BHQ-3′).
(§1) For quantification of mouse Cyp26 mRNA levels, each amplification mixture (25 μ) contained 62.5 ng of cDNA, 100 nM concentrations of reverse and forward primers, and 2.5 μl of 10× SYBR Green PCR master mix (Perkin-Elmer Life Sciences, Boston, Mass.). Quantitative expression values were extrapolated from standard curves for Cyp26 expression with 10-fold dilutions of cDNA (in triplicate). Each sample was normalized to β-actin that was deduced from TaqMan assays, triplicate results were averaged, and relative Cyp26 mRNA levels were determined. The primers mCyp26 F (5′-[…]-3′) and mCyp26 R (5′-[…]-3′) were used. RNA measurements from human monocyte-derived macrophages were performed as described previously (10, 44).

RARγ protein = experiment: Western blot of RARγ protein in macrophages; assay type: cell-based; settings: macrophages incubated with ATRA
Experimental: Nuclear protein extracts from tissues and macrophages were isolated according to the following method. Tissue samples and cells were first homogenized on ice and then lysed in lysis buffer (10 mM Tris [pH 7.5], 3 mM MgCl2, 10 mM NaCl, 0.5% NP-40) containing protease inhibitor cocktail. The nucleus was then pelleted by centrifugation for 10 min at 6,000× g, immediately resuspended in a nucleus suspension buffer (250 mM Tris [pH 8.0], 60 mM KCl, I mM dithiothrietol), and then rotated for 1 h. […] The intensities of the bands were quantified by using ImageQuant and normalized to (β-actin.

ABCA1 protein [3] = experiment: Western blot of ABCA1 protein in mouse peritoneal macrophages; assay type: cell-based; settings: 24 h
Experimental: (§2) Protein extracts from macrophages were prepared by lysing the cells in modified radioimmunoprecipitation assay buffer (50 mM Tris, 150 mM NaCl, 1 mM EDTA. 1% Triton X-100) containing a protease inhibitor cocktail (Complete EDTA Free; Roche). Protein content in the extracts was determined by using the DC protein assay (Bio-Rad, Hercules, Calif.). Equal amounts of protein (40 to 50 μg) were separated by electrophoresis with 4 to 15% acrylamide gradient gels (Bio-Rad) and then transferred to nitrocellulose membrane (Trans-Blot Transfer Medium; Bio-Rad). Membranes were probed with anti-ABCA1 antibody (Novus Biologicals, Littleton, Colo.) and anti-β-actin antibody (Sigma) according to the manufacturer's recommendations. Immunoblots were developed by using a chemiluminescent detection system (Super Signal West Pico chemiluminescent substrate; Pierce, Rockford, Ill.).

[4] = test system: ABCA1-mediated cholesterol efflux from mouse peritoneal macrophages; experiment: Cholesterol efflux to apoA-I from cholesterol-loaded macrophages
[5] = test system: ABCA1, ABCG1, SREBP-1c, apoE, LXRα, Cyp26 mRNA; experiment: Quantitative real-time PCR of LXR target genes and Cyp26 in human monocyte-derived macrophages; assay type: cell-based
Experimental: as §1

ABCA1 protein [6] = experiment: Western blot of ABCA1 protein in human monocyte-derived macrophages; assay type: cell-based; settings: human primary monocytes/macrophages, 10 μM, 24 h
Experimental: as §2

[7] = mouse primary macrophages, ATRA 0.1 to 5 μM
[8] = human primary monocytes/macrophages, ATRA 0.5 to 5 μM, 24 h

SMILES: CC1=C(/C=C/C(C)=C/C=C/C(C)=C/C(=O)O)C(C)(C)CCC1 [ATRA, all-trans-retinoic acid]
- patients in whom remission is induced [1]: ca. 80%
- ABCA1 mRNA ([2]; mouse peritoneal macrophages, ATRA 0.1 to 5 μM): increase in the mRNA that was parallel to the dose response of protein and cholesterol efflux
- lowest dose giving ABCA1 mRNA response ([2]; mouse primary macrophages): 0.25 µM
- ABCG1 mRNA induction [2, 7]: weaker and somewhat inconsistent induction
- LXRα mRNA induction [2, 7]: no significant induction
- SREBP-1c mRNA induction [2, 7]: weaker and somewhat inconsistent induction
- apoE mRNA induction [2, 7]: no significant induction
- induction of RARγ protein (RARγ protein): < 2 fold
- ABCA1 protein levels (ABCA1 protein [3]): dose dependently increased
- ABCA1-dependent cholesterol efflux to apoA-1, dose response [4]: increased ABCA1-dependent cholesterol efflux to apoA-1 in a dose-dependent fashion
- increase in cholesterol efflux to apoA-I, ATRA compared with TO-901317 ([4]; 1 and 5 μM ATRA): comparable to that occurring in macrophages treated with the LXR activator TO-901317
- increase of cholesterol efflux to apoA-1 ([4]; maximum dose of 10 μM): ~2 fold
- apoE mRNA induction ([5]; human primary macrophages, even at the higher dose): not induced
- ABCA1 mRNA induction [5, 8]: strong induction
- ABCG1 mRNA induction [5, 8]: strong induction
- LXRα mRNA induction [5, 8]: weaker but significant increases
- SREBP-1c mRNA induction [5, 8]: weaker but significant increases
- ABCA1 protein (ABCA1 protein [6]): increased
